Entries after “also recorded” stand apart in the source; their conditions may differ.
What was measured:
[1] = biological target: T1, OAT1 (Homo sapiens, UniProt Q4U2R8); test: Uptake of amanitins into HEK293-OAT1 cells; format: in vitro ADME; conditions: 50 μM amanitin, 5 min, 37 °C, HBSS, 20 min preincubation, with and without probenecid, LC-HRMS, n = 3
T1 construct: expressed in transfected cells; host or cells: HEK293
T1 sequence (Q4U2R8 1-563): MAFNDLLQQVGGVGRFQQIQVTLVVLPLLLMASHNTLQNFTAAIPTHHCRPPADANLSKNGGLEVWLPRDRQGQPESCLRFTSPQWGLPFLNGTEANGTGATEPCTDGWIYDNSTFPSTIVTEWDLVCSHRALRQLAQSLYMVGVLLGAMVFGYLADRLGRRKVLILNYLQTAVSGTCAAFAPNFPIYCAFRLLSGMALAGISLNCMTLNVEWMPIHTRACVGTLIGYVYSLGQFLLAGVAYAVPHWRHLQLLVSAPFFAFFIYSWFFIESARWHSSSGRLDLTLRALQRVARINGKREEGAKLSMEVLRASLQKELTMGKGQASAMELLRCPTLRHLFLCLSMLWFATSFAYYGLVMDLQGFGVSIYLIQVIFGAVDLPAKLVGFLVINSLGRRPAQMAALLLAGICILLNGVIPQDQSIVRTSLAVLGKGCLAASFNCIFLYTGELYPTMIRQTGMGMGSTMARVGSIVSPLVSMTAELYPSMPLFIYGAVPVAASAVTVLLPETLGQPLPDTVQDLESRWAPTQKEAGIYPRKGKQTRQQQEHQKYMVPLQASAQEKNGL
Description: (§1) HEK293 cells overexpressing OCT2, MATE2-K, OAT1, OAT3, OATP1B1, and OATP1B3 transporters and HEK293-control cells were maintained in a humidified atmosphere of 5% CO2 at 37 °C in DMEM supplemented with 10% FBS and 5 mM non-essential amino acids. In the case of HEK293-OATP1B1, -OATP1B3, and MATE2-K cells, 2 mM sodium butyrate was added to the culture medium to enhance transport activity. Cells were seeded at 2 × 10^5 cells/well in poly-D-lysine-coated 24-well plates. After 24 h, the growth medium was discarded, and attached cells were washed with HBSS and preincubated for 20 min in HBSS at 37 °C. Stock solutions of α- and β-amanitin and representative inhibitors of transporters were diluted in HBSS to make the final concentration: cimetidine 1 mM (for OCT2), cimetidine 100 μM (for MATE2-K), probenecid 100 μM (for OAT1 and OAT3), and rifampin 100 μM (for OATP1B1 and OATP1B3). Uptake of 50 μM α- and β-amanitin was measured in the absence and presence of representative inhibitors for 5 min at 37 °C. Plates were placed immediately on ice, and cells were then washed twice with 1 mL of ice-cold HBSS. Residual HBSS was removed thoroughly from the plates. Subsequently, 150 μL of 80% methanol containing IS was added to each sample well, and the cell plates were shaken gently for 20 min at 4 °C. The remaining steps were the same as described for plasma sample preparation.

[2] = biological target: T2, OATP1B3 (Homo sapiens, UniProt Q9NPD5); test: Uptake of amanitins into HEK293-OATP1B3 cells; format: in vitro ADME; conditions: 50 μM amanitin, 5 min, 37 °C, HBSS, 20 min preincubation, with and without rifampin 100 μM, LC-HRMS, n = 3
T2 construct: expressed in transfected cells; host or cells: HEK293
T2 sequence (Q9NPD5 whole entry): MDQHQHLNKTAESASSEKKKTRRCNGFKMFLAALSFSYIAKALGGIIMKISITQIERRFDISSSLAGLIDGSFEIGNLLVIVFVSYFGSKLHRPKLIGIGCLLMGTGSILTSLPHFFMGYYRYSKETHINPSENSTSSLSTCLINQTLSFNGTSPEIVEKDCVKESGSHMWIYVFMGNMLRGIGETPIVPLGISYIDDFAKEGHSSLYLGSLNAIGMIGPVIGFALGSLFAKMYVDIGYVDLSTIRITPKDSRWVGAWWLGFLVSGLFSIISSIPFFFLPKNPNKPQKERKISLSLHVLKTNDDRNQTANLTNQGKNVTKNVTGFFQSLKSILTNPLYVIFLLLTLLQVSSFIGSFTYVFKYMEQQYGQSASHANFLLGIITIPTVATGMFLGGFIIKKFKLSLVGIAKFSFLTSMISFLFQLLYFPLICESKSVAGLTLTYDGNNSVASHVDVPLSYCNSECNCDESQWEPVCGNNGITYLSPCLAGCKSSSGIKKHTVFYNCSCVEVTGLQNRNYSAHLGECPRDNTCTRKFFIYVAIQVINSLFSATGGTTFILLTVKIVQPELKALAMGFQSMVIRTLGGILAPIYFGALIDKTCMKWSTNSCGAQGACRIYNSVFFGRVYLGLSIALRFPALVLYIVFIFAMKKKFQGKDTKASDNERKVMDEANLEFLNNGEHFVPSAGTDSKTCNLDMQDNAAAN
Description: as §1

[3] = humans, cited from earlier work; for Concentration in the kidney of amatoxin-intoxicated patients / Concentration in the liver of amatoxin-intoxicated patients: 4 cases; for Plasma concentrations in amatoxin-intoxicated patients: detected in 11 of 43 patients exposed within 36 h; for Total amount excreted in urine in amatoxin-intoxicated patients: measured in 24 patients out of 35 cases
Description: In humans, the plasma and urinary concentrations of α- and β-amanitin were detected in cases of suspected amatoxin poisoning. Among 43 amatoxin-intoxicated patients, amanitin was detected in 11 patients who were exposed to amatoxin within 36 h. The plasma concentrations were 8–190 ng/mL for α-amanitin and 15.9–162 ng/mL for β-amanitin [26]. The total amount of α- and β-amanitin excreted in urine were measured in 24 patients out of 35 cases, and a highly variable amount of α- and β-amanitin was recovered from the urine: 0.03–3.29 mg for α-amanitin and 0.05–5.21 mg for β-amani ... || The intestinal tract, liver, and kidney are vulnerable to amanitin toxicity and also express drug-metabolizing enzymes and transporters that regulate the absorption, distribution, metabolism, and excretion of endogenous substrates and xenobiotics. […] Inhibition of CYP1A2, CYP2C8, CYP2C9, CYP2C19, and CYP3A4 at 100 μM in HLMs was almos ...

[4] = oral administration of dried powder of Amanita exitialis 60 mg/kg; cited from earlier work
Description: In addition, bile drainage caused more than a 70% reduction in plasma concentration of α- and β-amanitin and reduced hepatic toxicity following the oral administration of dried powder of Amanita exitialis (60 mg/kg). […] However, the toxicokinetics and tissue distribution of β-amanitin (Figure 1) upon ex ...

[5] = biological target: MATE2-K (Homo sapiens, UniProt Q86VL8); test: Uptake of amanitins into HEK293-MATE2-K cells; format: in vitro ADME; parameters: expressed in transfected cells; host or cells: HEK293; conditions: 50 μM amanitin, 5 min, 37 °C, HBSS, 20 min preincubation, with and without cimetidine 100 μM, LC-HRMS, n = 3
MATE2-K, sequence (Q86VL8 1-566 isoform Q86VL8-3): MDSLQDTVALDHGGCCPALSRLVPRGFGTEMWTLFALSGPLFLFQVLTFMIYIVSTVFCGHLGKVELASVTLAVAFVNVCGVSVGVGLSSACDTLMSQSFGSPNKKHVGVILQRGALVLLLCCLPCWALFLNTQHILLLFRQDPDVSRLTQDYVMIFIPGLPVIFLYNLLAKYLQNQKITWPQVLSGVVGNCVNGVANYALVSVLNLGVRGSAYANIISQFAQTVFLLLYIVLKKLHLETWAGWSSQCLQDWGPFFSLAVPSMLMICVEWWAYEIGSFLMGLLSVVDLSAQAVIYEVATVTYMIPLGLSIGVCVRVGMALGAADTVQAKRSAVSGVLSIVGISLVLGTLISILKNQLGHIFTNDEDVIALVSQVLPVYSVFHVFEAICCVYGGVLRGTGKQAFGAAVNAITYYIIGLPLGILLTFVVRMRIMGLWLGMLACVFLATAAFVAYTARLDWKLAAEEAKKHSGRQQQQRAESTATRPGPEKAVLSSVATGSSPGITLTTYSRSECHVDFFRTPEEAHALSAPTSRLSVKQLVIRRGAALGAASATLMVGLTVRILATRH
Description: as §1

[6] = biological target: T3, OAT3 (Homo sapiens, UniProt Q8TCC7); test: Uptake of amanitins into HEK293-OAT3 cells; format: in vitro ADME; parameters: expressed in transfected cells; host or cells: HEK293; conditions: 50 μM amanitin, 5 min, 37 °C, HBSS, 20 min preincubation, with and without probenecid, LC-HRMS, n = 3
T3 sequence (Q8TCC7 1-542): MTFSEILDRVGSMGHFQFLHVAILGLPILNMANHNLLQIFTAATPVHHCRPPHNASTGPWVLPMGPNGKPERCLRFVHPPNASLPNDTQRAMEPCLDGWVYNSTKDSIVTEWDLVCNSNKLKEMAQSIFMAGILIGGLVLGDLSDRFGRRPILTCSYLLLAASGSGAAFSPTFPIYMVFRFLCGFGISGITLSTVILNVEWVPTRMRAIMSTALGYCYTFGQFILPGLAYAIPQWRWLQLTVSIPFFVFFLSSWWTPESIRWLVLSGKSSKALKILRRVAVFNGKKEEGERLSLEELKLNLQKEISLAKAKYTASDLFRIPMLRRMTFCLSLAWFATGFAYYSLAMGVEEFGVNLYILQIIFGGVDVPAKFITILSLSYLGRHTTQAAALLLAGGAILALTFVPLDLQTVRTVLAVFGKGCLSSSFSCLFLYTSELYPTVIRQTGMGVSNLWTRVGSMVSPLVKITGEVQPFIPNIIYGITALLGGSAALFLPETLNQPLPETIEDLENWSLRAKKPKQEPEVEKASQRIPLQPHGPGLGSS
Description: as §1

Row | Molecule | Uptake into HEK293-OAT1 cells compared with HEK293 control cells (transport substrate) [1] | Uptake into HEK293-OATP1B3 cells compared with HEK293 control cells (transport substrate) [2] | Concentration in the kidney of amatoxin-intoxicated patients [3] | Concentration in the liver of amatoxin-intoxicated patients [3] | Plasma concentrations in amatoxin-intoxicated patients [3] | Total amount excreted in urine in amatoxin-intoxicated patients [3] | Reduction in plasma concentration caused by bile drainage [4] | Uptake into HEK293-MATE2-K cells compared with HEK293 control cells (transport substrate) [5] | Uptake into HEK293-OAT3 cells compared with HEK293 control cells (transport substrate) [6]
1 | CC[C@H](C)[C@@H]1NC(=O)CNC(=O)[C@@H]2Cc3c([nH]c4cc(O)ccc34)[S@+]([O-])C[C@H](NC(=O)CNC1=O)C(=O)N[C@@H](CC(=O)O)C(=O)N1C[C@H](O)C[C@H]1C(=O)N[C@@H]([C@@H](C)[C@@H](O)CO)C(=O)N2 [β-amanitin] | not involved in the active transport | significantly increased; also recorded: substrate | 1017–1391 ng/g kidney | 170.8–3298 ng/g liver | 15.9 to 162 ng/mL | 0.05 to 5.21 mg | > 70% | not involved in the active transport | significantly greater uptake; also recorded: substrate
2 | α-amanitin [reference compound] | not involved in the active transport | significantly increased | 122–1719 ng/g kidney | 10–19 ng/g liver | 8 to 190 ng/mL | 0.03 to 3.29 mg | > 70% | not involved in the active transport | but not α-amanitin, showed significantly greater uptake
